Experimental data reported in PubChem BioAssay AID328 (DTP/NCI, 2004).
Inconclusive results and toxic doses are left out.

Tested on: BDF1 mice, P388 leukemia ip, median survival T/C
Assay: NCI In Vivo Anticancer Drug Screen. Data for tumor model P388 Leukemia (intraperitoneal) in B6D2F1 (BDF1) mice
Conditions: endpoint: median survival time, higher = longer survival
Summary of the method: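 Survival ratio, drug arm over vehicle arm, in mice with a transplanted tumour.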

[1] = dose: 100.0 mg/kg/injection, schedule: Q01DX009 (ip), vehicle: saline with Tween-80
[2] = dose: 200.0 mg/kg/injection, schedule: Q01DX009 (ip), vehicle: saline with Tween-80
[3] = dose: 400.0 mg/kg/injection, schedule: Q01DX009 (ip), vehicle: saline with Tween-80
[4] = dose: 50.0 mg/kg/injection, schedule: Q01DX009 (ip), vehicle: saline with Tween-80
[5] = dose: 100.0 mg/kg/injection, schedule: Q04DX003 (ip), vehicle: saline with Tween-80
[6] = dose: 200.0 mg/kg/injection, schedule: Q04DX003 (ip), vehicle: saline with Tween-80
[7] = dose: 400.0 mg/kg/injection, schedule: Q04DX003 (ip), vehicle: saline with Tween-80
[8] = dose: 25.0 mg/kg/injection, schedule: Q04DX003 (ip), vehicle: saline

Nc1nc(=O)n(C2CC(O)C(CO)O2)cc1Br (stereo not drawn)
T/C [1]: 109 % of control | T/C [2]: 90 % of control | T/C [3]: 100 % of control

Cc1csc(NC(=O)Nc2ccc(F)cc2[N+](=O)[O-])n1
T/C (dose: 12.5 mg/kg/injection, schedule: Q01DX009 (ip), vehicle: saline with Tween-80): 110 % of control | T/C (dose: 25.0 mg/kg/injection, schedule: Q01DX009 (ip), vehicle: saline with Tween-80): 88 % of control | T/C [4]: 120 % of control

C=C(C)S(=O)(=O)c1ccc(C)cc1
T/C [5]: 108 % of control | T/C [6]: 91 % of control | T/C [7]: 88 % of control

C=CC(OC)OC
T/C (dose: 6.25 mg/kg/injection, schedule: Q04DX003 (ip), vehicle: saline): 95 % of control | T/C (dose: 12.5 mg/kg/injection, schedule: Q04DX003 (ip), vehicle: saline): 100 % of control | T/C [8]: 104 % of control

CC(=O)N/N=C(/C)C(O)(c1ccccc1)c1ccccc1
T/C [1]: 99 % of control | T/C [5]: 103 % of control | T/C [2]: 100 % of control | T/C [6]: 99 % of control | T/C [3]: 99 % of control | T/C [7]: 87 % of control

CN1CCC(=C(C#N)C#N)CC1
T/C [8]: 95 % of control | T/C (dose: 50.0 mg/kg/injection, schedule: Q04DX003 (ip), vehicle: saline): 100 % of control | T/C (dose: 100.0 mg/kg/injection, schedule: Q04DX003 (ip), vehicle: saline): 100 % of control

CN(C)C/C=C(/c1ccc(Br)cc1)c1cccnc1
T/C (dose: 12.5 mg/kg/injection, schedule: Q01DX009 (ip), vehicle: saline): 89 % of control | T/C (dose: 25.0 mg/kg/injection, schedule: Q01DX009 (ip), vehicle: saline): 103 % of control | T/C (dose: 50.0 mg/kg/injection, schedule: Q01DX009 (ip), vehicle: saline): 97 % of control

Cc1ccc(C(CCC#N)OC(C)C)cc1 (stereo not drawn)
T/C (dose: 100.0 mg/kg/injection, schedule: Q01DX009 (ip), vehicle: Klucel (hydroxypropylcellulose) (HPC)): 86 % of control | T/C (dose: 100.0 mg/kg/injection, schedule: Q04DX003 (ip), vehicle: Klucel (hydroxypropylcellulose) (HPC)): 100 % of control | T/C (dose: 200.0 mg/kg/injection, schedule: Q01DX009 (ip), vehicle: Klucel (hydroxypropylcellulose) (HPC)): 109 % of control | T/C (dose: 200.0 mg/kg/injection, schedule: Q04DX003 (ip), vehicle: Klucel (hydroxypropylcellulose) (HPC)): 109 % of control | T/C (dose: 400.0 mg/kg/injection, schedule: Q01DX009 (ip), vehicle: Klucel (hydroxypropylcellulose) (HPC)): 113 % of control | T/C (dose: 400.0 mg/kg/injection, schedule: Q04DX003 (ip), vehicle: Klucel (hydroxypropylcellulose) (HPC)): 109 % of control

O=Cc1cc(O)ccc1[N+](=O)[O-]
T/C [4]: 95 % of control | T/C [1]: 104 % of control | T/C [5]: 104 % of control | T/C [2]: 100 % of control | T/C [6]: 90 % of control

CN(C)CCNc1ccc(O)c2sc3ccccc3c(=O)c12
T/C (dose: 25.0 mg/kg/injection, schedule: Q04DX003 (ip), vehicle: saline with Tween-80): 96 % of control | T/C (dose: 50.0 mg/kg/injection, schedule: Q04DX003 (ip), vehicle: saline with Tween-80): 109 % of control | T/C [5]: 97 % of control

CCc1ccccc1NC(=O)N1CCOCC1
T/C [4]: 94 % of control | T/C [1]: 102 % of control | T/C [2]: 109 % of control

O=C(c1ccc(Cl)cc1)C1Cc2ccccc2C1=O (stereo not drawn)
T/C [1]: 91 % of control | T/C [5]: 91 % of control | T/C [2]: 91 % of control | T/C [6]: 121 % of control | T/C [3]: 100 % of control | T/C [7]: 100 % of control

NC(c1ccccc1)c1c(O)ccc2ccccc12 (stereo not drawn)
T/C (dose: 100.0 mg/kg/injection, schedule: Q01DX009 (ip), vehicle: gum acacia): 103 % of control | T/C (dose: 100.0 mg/kg/injection, schedule: Q04DX003 (ip), vehicle: gum acacia): 109 % of control | T/C (dose: 200.0 mg/kg/injection, schedule: Q01DX009 (ip), vehicle: gum acacia): 107 % of control | T/C (dose: 200.0 mg/kg/injection, schedule: Q04DX003 (ip), vehicle: gum acacia): 122 % of control | T/C (dose: 400.0 mg/kg/injection, schedule: Q01DX009 (ip), vehicle: gum acacia): 117 % of control | T/C (dose: 400.0 mg/kg/injection, schedule: Q04DX003 (ip), vehicle: gum acacia): 122 % of control

COC(=O)C1(C)CCCC2(C)C1CCC13C=C(C(C)C)C(CC1C(=O)O)CC23 (stereo not drawn)
T/C [4]: 95 % of control | T/C [1]: 91 % of control | T/C [2]: 95 % of control

O=NN(CCCl)C(=O)NC1CC2CCC1C2 (stereo not drawn)
T/C (dose: 33.0 mg/kg/injection, schedule: Q04DX003 (ip), vehicle: saline with Tween-80): 272 % of control | T/C (dose: 75.0 mg/kg/injection, schedule: Q04DX003 (ip), vehicle: saline with Tween-80): 113 % of control
